{"source": "patent US20260356819A1", "about": "“OXOISOINDOLINYL-SUBSTITUTED […] DERIVATIVE AND USE THEREOF” (GLUETACS THERAPEUTICS (SHANGHAI) CO., LTD., priority 2023, published 2026)", "format_in_all_cases": "cell-based", "conditions_in_all_cases": "compounds at 50 nM and 500 nM", "key": {"IKZF1": {"molecular_target": "T1, IKZF1 (Homo sapiens, UniProt Q13422+Q96SW2)", "T1 construct": "The supernatant was aspirated as the extracted total cell protein; endogenous in cells; host or cells: human peripheral blood mononuclear cells (hPBMCs)", "T1 sequence (Q13422 whole entry)": "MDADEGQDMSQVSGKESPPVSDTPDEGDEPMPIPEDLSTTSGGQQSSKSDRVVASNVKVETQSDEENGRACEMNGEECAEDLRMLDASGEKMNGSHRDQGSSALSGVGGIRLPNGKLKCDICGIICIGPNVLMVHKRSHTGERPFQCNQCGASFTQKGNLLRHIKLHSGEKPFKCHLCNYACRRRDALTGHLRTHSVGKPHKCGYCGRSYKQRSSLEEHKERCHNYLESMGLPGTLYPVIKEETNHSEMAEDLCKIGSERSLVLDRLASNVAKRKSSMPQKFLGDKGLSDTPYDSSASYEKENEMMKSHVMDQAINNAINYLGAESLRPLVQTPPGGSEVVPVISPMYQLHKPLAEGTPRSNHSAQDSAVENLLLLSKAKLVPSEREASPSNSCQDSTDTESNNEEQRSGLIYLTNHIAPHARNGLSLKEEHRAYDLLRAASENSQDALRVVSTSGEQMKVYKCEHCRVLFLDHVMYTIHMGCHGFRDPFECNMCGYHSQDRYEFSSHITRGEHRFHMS", "T1 sequence (Q96SW2 whole entry)": "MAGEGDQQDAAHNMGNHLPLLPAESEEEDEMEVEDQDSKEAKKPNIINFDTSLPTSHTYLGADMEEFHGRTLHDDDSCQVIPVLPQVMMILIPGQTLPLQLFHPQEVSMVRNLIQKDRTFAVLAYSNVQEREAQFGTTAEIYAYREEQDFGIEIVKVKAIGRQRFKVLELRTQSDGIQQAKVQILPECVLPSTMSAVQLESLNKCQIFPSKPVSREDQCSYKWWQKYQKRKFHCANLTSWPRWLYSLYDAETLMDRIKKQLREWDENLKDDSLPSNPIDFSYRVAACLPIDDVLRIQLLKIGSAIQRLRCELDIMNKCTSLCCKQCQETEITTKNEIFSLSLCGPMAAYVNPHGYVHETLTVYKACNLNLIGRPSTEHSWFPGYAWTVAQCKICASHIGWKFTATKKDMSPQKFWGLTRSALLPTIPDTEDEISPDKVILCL", "T1 sequence (Q16531 whole entry partner)": "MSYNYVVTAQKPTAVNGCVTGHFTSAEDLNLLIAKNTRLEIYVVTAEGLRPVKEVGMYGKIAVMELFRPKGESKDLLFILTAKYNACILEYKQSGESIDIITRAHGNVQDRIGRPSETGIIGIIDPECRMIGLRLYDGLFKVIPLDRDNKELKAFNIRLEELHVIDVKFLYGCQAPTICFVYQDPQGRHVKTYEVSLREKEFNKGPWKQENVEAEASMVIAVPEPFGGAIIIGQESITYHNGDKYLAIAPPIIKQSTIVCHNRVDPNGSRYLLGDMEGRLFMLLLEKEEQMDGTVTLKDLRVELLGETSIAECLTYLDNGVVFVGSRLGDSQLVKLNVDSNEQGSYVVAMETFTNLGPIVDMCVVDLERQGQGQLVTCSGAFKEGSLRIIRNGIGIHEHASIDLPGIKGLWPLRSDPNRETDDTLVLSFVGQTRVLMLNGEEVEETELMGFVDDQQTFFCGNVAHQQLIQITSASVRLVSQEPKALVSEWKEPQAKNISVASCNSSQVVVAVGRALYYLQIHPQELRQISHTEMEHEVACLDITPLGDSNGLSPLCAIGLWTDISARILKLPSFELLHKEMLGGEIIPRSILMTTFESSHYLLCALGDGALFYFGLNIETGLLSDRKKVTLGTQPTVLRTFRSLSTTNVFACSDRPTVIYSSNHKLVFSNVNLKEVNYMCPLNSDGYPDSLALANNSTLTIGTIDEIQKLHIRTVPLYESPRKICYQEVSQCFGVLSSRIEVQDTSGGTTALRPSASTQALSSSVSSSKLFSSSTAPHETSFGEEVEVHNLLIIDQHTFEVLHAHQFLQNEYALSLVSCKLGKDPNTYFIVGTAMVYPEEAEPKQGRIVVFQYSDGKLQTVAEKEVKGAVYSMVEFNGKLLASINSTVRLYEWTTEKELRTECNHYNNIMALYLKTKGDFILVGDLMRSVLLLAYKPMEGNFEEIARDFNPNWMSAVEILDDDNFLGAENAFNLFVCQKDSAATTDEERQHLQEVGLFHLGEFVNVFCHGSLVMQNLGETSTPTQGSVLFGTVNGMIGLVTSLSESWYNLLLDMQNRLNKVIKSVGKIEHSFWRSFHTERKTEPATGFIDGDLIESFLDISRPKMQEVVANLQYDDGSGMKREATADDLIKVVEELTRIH", "experiment": "Western blot degradation of IKZF1 in hPBMCs (24 h)", "how_it_was_run": "(§1)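 Western blot densitometry after 24 h treatment of human PBMCs (1×10^6 cells/mL) with 50 nM or 500 nM compound. Remaining target (%) = band intensity over internal-control band, normalized to DMSO; degradation = 1 − remaining; DC50 is the concentration giving half the DMSO band signal.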"}, "GSPT1": {"molecular_target": "T2, GSPT1 (Homo sapiens, UniProt P15170+Q96SW2)", "T2 construct": "The supernatant was aspirated as the extracted total cell protein; endogenous in cells; host or cells: human peripheral blood mononuclear cells (hPBMCs)", "experiment": "Western blot degradation of GSPT1 in hPBMCs (24 h)", "how_it_was_run": "as §1"}, "CK1α": {"molecular_target": "T3, CK1α (Homo sapiens, UniProt P48729+Q96SW2)", "T3 construct": "The supernatant was aspirated as the extracted total cell protein; endogenous in cells; host or cells: human peripheral blood mononuclear cells (hPBMCs)", "T3 sequence (P48729 whole entry)": "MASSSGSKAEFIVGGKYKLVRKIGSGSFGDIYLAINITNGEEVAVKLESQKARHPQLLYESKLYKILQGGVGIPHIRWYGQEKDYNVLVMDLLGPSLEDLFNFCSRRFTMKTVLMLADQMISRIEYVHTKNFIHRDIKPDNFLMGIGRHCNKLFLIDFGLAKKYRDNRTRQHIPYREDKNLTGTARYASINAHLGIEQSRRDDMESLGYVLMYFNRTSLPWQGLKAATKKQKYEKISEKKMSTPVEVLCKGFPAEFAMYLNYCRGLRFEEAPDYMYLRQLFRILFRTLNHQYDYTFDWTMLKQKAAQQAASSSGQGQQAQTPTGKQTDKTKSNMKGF", "T3 sequence (Q96SW2 whole entry)": "as the sequence (Q96SW2 whole entry) above", "T3 sequence (Q16531 whole entry partner)": "as the sequence (Q16531 whole entry partner) above", "experiment": "Western blot degradation of CK1α in hPBMCs (24 h)", "how_it_was_run": "as §1"}, "IKZF3": {"molecular_target": "T4, IKZF3 (Homo sapiens, UniProt Q96SW2+Q9UKT9)", "T4 construct": "The supernatant was aspirated as the extracted total cell protein; endogenous in cells; host or cells: human peripheral blood mononuclear cells (hPBMCs)", "T4 sequence (Q9UKT9 whole entry)": "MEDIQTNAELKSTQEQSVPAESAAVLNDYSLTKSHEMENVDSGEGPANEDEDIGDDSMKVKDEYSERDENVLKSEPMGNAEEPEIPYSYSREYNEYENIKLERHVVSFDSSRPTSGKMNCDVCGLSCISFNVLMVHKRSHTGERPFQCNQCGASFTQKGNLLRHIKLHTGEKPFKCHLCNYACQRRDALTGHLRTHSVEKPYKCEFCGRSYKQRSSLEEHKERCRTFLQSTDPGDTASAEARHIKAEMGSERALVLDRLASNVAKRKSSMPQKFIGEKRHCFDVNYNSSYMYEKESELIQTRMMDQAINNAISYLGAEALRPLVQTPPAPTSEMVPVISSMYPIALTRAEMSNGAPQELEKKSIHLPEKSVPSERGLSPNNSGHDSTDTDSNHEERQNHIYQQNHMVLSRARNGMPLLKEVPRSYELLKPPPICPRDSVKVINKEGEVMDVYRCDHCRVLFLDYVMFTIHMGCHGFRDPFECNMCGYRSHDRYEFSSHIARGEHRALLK", "T4 sequence (Q96SW2 whole entry)": "as the sequence (Q96SW2 whole entry) above", "T4 sequence (Q16531 whole entry partner)": "as the sequence (Q16531 whole entry partner) above", "experiment": "Western blot degradation of IKZF3 in hPBMCs (24 h)", "how_it_was_run": "as §1"}, "IKZF2": {"molecular_target": "T5, IKZF2 (Homo sapiens, UniProt Q96SW2+Q9UKS7)", "T5 construct": "The supernatant was aspirated as the extracted total cell protein; endogenous in cells; host or cells: human peripheral blood mononuclear cells (hPBMCs)", "T5 sequence (Q9UKS7 whole entry)": "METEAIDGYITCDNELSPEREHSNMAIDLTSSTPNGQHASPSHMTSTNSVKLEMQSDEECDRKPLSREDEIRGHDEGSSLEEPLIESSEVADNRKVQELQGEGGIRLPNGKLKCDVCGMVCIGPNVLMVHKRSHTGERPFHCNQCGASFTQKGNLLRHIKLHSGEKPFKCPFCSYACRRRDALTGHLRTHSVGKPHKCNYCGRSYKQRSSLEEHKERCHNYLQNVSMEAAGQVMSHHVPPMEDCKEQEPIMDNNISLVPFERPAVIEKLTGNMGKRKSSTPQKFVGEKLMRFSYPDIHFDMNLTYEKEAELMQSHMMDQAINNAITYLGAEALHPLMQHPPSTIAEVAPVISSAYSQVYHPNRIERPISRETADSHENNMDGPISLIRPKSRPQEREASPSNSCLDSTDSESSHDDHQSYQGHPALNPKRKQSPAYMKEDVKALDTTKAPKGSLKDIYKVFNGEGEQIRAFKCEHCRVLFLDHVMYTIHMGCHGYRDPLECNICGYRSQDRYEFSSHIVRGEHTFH", "T5 sequence (Q96SW2 whole entry)": "as the sequence (Q96SW2 whole entry) above", "T5 sequence (Q16531 whole entry partner)": "as the sequence (Q16531 whole entry partner) above", "experiment": "Western blot degradation of IKZF2 in hPBMCs (24 h)", "how_it_was_run": "as §1"}, "WEE1": {"molecular_target": "T6, WEE1 (Homo sapiens, UniProt P30291+Q96SW2)", "T6 construct": "The supernatant was aspirated as the extracted total cell protein; endogenous in cells; host or cells: human peripheral blood mononuclear cells (hPBMCs)", "T6 sequence (P30291 whole entry)": "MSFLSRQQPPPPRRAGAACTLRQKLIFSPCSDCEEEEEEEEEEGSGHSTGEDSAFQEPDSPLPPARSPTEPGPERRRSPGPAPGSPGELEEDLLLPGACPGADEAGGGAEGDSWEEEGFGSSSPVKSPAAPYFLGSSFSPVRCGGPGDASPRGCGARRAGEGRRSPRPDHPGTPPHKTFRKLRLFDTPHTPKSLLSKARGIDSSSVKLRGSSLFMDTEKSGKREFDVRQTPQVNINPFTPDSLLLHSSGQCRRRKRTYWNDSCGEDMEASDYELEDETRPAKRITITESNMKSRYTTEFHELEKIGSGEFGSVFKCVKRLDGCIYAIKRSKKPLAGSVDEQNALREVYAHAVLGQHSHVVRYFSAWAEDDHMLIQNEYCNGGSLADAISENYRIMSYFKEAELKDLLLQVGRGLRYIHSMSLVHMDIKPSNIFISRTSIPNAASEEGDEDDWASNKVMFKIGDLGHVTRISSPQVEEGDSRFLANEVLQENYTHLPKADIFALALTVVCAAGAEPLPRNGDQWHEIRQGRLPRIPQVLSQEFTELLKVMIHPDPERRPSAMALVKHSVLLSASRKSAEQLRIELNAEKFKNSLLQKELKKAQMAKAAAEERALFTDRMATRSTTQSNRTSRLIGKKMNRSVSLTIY", "T6 sequence (Q96SW2 whole entry)": "as the sequence (Q96SW2 whole entry) above", "T6 sequence (Q16531 whole entry partner)": "as the sequence (Q16531 whole entry partner) above", "experiment": "Western blot degradation of WEE1 in hPBMCs (24 h)", "how_it_was_run": "as §1"}}}
{"smiles": "O=C1CCN(N2C(=O)c3ccc(CN4CCN(c5ccc(C(F)(F)F)cn5)CC4)cc3C2=O)C(=O)N1", "note": "[GT-06968, 2-(2,4-dioxotetrahydropyrimidin-1(2H)-yl)-5-((4-(5-(trifluoromethyl)pyridin-2-yl)piperazin-1-yl)methyl)isoindoline-1,3-dione]", "values": [{"measurement": "IKZF1 substrate protein remaining %", "setting": "IKZF1", "result": "B (80%< substrate protein remaining % ≤100%)"}, {"measurement": "GSPT1 substrate protein remaining %", "setting": "GSPT1", "result": "B (80%< substrate protein remaining % ≤100%)"}, {"measurement": "CK1α substrate protein remaining %", "setting": "CK1α", "result": "B (80%< substrate protein remaining % ≤100%)"}, {"measurement": "IKZF3 substrate protein remaining %", "setting": "IKZF3", "result": "B (80%< substrate protein remaining % ≤100%)"}, {"measurement": "IKZF2 substrate protein remaining %", "setting": "IKZF2", "result": "A (0% ≤ substrate protein remaining % ≤80%)"}, {"measurement": "WEE1 substrate protein remaining %", "setting": "WEE1", "result": "A (0% ≤ substrate protein remaining % ≤80%)"}]}
{"smiles": "O=C1CCN(N2C(=O)c3ccc(CN4CCN(c5ncc(Cl)cc5Cl)CC4)cc3C2=O)C(=O)N1", "note": "[GT-06969, 5-((4-(3,5-dichloropyridin-2-yl)piperazin-1-yl)methyl)-2-(2,4-dioxotetrahydropyrimidin-1(2H)-yl)isoindoline-1,3-dione]", "values": [{"measurement": "IKZF1 substrate protein remaining %", "setting": "IKZF1", "result": "B (80%< substrate protein remaining % ≤100%)"}, {"measurement": "GSPT1 substrate protein remaining %", "setting": "GSPT1", "result": "B (80%< substrate protein remaining % ≤100%)"}, {"measurement": "CK1α substrate protein remaining %", "setting": "CK1α", "result": "B (80%< substrate protein remaining % ≤100%)"}, {"measurement": "IKZF3 substrate protein remaining %", "setting": "IKZF3", "result": "B (80%< substrate protein remaining % ≤100%)"}, {"measurement": "IKZF2 substrate protein remaining %", "setting": "IKZF2", "result": "A (0% ≤ substrate protein remaining % ≤80%)"}, {"measurement": "WEE1 substrate protein remaining %", "setting": "WEE1", "result": "A (0% ≤ substrate protein remaining % ≤80%)"}]}
{"smiles": "O=C1CCN(N2C(=O)c3ccc(CN4CCN(c5nccc(I)c5F)CC4)cc3C2=O)C(=O)N1", "note": "[GT-06970, 2-(2,4-dioxotetrahydropyrimidin-1(2H)-yl)-5-((4-(3-fluoro-4-iodopyridin-2-yl)piperazin-1-yl)methyl)isoindoline-1,3-dione]", "values": [{"measurement": "IKZF1 substrate protein remaining %", "setting": "IKZF1", "result": "B (80%< substrate protein remaining % ≤100%)"}, {"measurement": "GSPT1 substrate protein remaining %", "setting": "GSPT1", "result": "B (80%< substrate protein remaining % ≤100%)"}, {"measurement": "CK1α substrate protein remaining %", "setting": "CK1α", "result": "B (80%< substrate protein remaining % ≤100%)"}, {"measurement": "IKZF3 substrate protein remaining %", "setting": "IKZF3", "result": "B (80%< substrate protein remaining % ≤100%)"}, {"measurement": "IKZF2 substrate protein remaining %", "setting": "IKZF2", "result": "A (0% ≤ substrate protein remaining % ≤80%)"}, {"measurement": "WEE1 substrate protein remaining %", "setting": "WEE1", "result": "A (0% ≤ substrate protein remaining % ≤80%)"}]}
{"smiles": "O=C1CCN(N2C(=O)c3ccc(CN4CCN(c5cccnc5)CC4)cc3C2=O)C(=O)N1", "note": "[GT-06971, 2-(2,4-dioxotetrahydropyrimidin-1(2H)-yl)-5-((4-(pyridin-3-yl)piperazin-1-yl)methyl)isoindoline-1,3-dione]", "values": [{"measurement": "IKZF1 substrate protein remaining %", "setting": "IKZF1", "result": "B (80%< substrate protein remaining % ≤100%)"}, {"measurement": "GSPT1 substrate protein remaining %", "setting": "GSPT1", "result": "B (80%< substrate protein remaining % ≤100%)"}, {"measurement": "CK1α substrate protein remaining %", "setting": "CK1α", "result": "B (80%< substrate protein remaining % ≤100%)"}, {"measurement": "IKZF3 substrate protein remaining %", "setting": "IKZF3", "result": "B (80%< substrate protein remaining % ≤100%)"}, {"measurement": "IKZF2 substrate protein remaining %", "setting": "IKZF2", "result": "A (0% ≤ substrate protein remaining % ≤80%)"}, {"measurement": "WEE1 substrate protein remaining %", "setting": "WEE1", "result": "A (0% ≤ substrate protein remaining % ≤80%)"}]}
{"smiles": "O=C1CCN(N2C(=O)c3ccc(CN4CCN(c5cncc(Cl)c5Cl)CC4)cc3C2=O)C(=O)N1", "note": "[GT-06972, 5-((4-(4,5-dichloropyridin-3-yl)piperazin-1-yl)methyl)-2-(2,4-dioxotetrahydropyrimidin-1(2H)-yl)isoindoline-1,3-dione]", "values": [{"measurement": "IKZF1 substrate protein remaining %", "setting": "IKZF1", "result": "B (80%< substrate protein remaining % ≤100%)"}, {"measurement": "GSPT1 substrate protein remaining %", "setting": "GSPT1", "result": "B (80%< substrate protein remaining % ≤100%)"}, {"measurement": "CK1α substrate protein remaining %", "setting": "CK1α", "result": "B (80%< substrate protein remaining % ≤100%)"}, {"measurement": "IKZF3 substrate protein remaining %", "setting": "IKZF3", "result": "B (80%< substrate protein remaining % ≤100%)"}, {"measurement": "IKZF2 substrate protein remaining %", "setting": "IKZF2", "result": "A (0% ≤ substrate protein remaining % ≤80%)"}, {"measurement": "WEE1 substrate protein remaining %", "setting": "WEE1", "result": "A (0% ≤ substrate protein remaining % ≤80%)"}]}
{"smiles": "O=C1CCN(N2C(=O)c3ccc(CN4CCN(c5c(Cl)ccnc5Cl)CC4)cc3C2=O)C(=O)N1", "note": "[GT-06973, 5-((4-(2,4-dichloropyridin-3-yl)piperazin-1-yl)methyl)-2-(2,4-dioxotetrahydropyrimidin-1(2H)-yl)isoindoline-1,3-dione]", "values": [{"measurement": "IKZF1 substrate protein remaining %", "setting": "IKZF1", "result": "A (0% ≤ substrate protein remaining % ≤80%)"}, {"measurement": "GSPT1 substrate protein remaining %", "setting": "GSPT1", "result": "B (80%< substrate protein remaining % ≤100%)"}, {"measurement": "CK1α substrate protein remaining %", "setting": "CK1α", "result": "B (80%< substrate protein remaining % ≤100%)"}, {"measurement": "IKZF3 substrate protein remaining %", "setting": "IKZF3", "result": "A (0% ≤ substrate protein remaining % ≤80%)"}, {"measurement": "IKZF2 substrate protein remaining %", "setting": "IKZF2", "result": "B (80%< substrate protein remaining % ≤100%)"}, {"measurement": "WEE1 substrate protein remaining %", "setting": "WEE1", "result": "A (0% ≤ substrate protein remaining % ≤80%)"}]}
{"smiles": "O=C1CCN(N2Cc3cc(CN4CCN(c5c(Cl)ccnc5Cl)CC4)ccc3C2=O)C(=O)N1", "note": "[GT-06974, 1-(5-((4-(2,4-dichloropyridin-3-yl)piperazin-1-yl)methyl)-1-oxoisoindolin-2-yl)dihydropyrimidine-2,4(1H,3H)-dione]", "values": [{"measurement": "IKZF1 substrate protein remaining %", "setting": "IKZF1", "result": "A (0% ≤ substrate protein remaining % ≤80%)"}, {"measurement": "GSPT1 substrate protein remaining %", "setting": "GSPT1", "result": "B (80%< substrate protein remaining % ≤100%)"}, {"measurement": "CK1α substrate protein remaining %", "setting": "CK1α", "result": "B (80%< substrate protein remaining % ≤100%)"}, {"measurement": "IKZF3 substrate protein remaining %", "setting": "IKZF3", "result": "A (0% ≤ substrate protein remaining % ≤80%)"}, {"measurement": "IKZF2 substrate protein remaining %", "setting": "IKZF2", "result": "B (80%< substrate protein remaining % ≤100%)"}, {"measurement": "WEE1 substrate protein remaining %", "setting": "WEE1", "result": "A (0% ≤ substrate protein remaining % ≤80%)"}]}
{"smiles": "O=C1CCN(N2C(=O)c3ccc(CN4CCN(c5ccc(Cl)nc5)CC4)cc3C2=O)C(=O)N1", "note": "[GT-07027, 5-((4-(6-chloropyridin-3-yl)piperazin-1-yl)methyl)-2-(2,4-dioxotetrahydropyrimidin-1(2H)-yl)isoindoline-1,3-dione]", "values": [{"measurement": "IKZF1 substrate protein remaining %", "setting": "IKZF1", "result": "B (80%< substrate protein remaining % ≤100%)"}, {"measurement": "GSPT1 substrate protein remaining %", "setting": "GSPT1", "result": "A (0% ≤ substrate protein remaining % ≤80%)"}, {"measurement": "CK1α substrate protein remaining %", "setting": "CK1α", "result": "B (80%< substrate protein remaining % ≤100%)"}, {"measurement": "IKZF3 substrate protein remaining %", "setting": "IKZF3", "result": "B (80%< substrate protein remaining % ≤100%)"}, {"measurement": "IKZF2 substrate protein remaining %", "setting": "IKZF2", "result": "B (80%< substrate protein remaining % ≤100%)"}, {"measurement": "WEE1 substrate protein remaining %", "setting": "WEE1", "result": "A (0% ≤ substrate protein remaining % ≤80%)"}]}
{"smiles": "O=C1CCN(N2Cc3cc(CN4CCN(c5ncnc(Cl)c5Cl)CC4)ccc3C2=O)C(=O)N1", "note": "[GT-07028, 1-(5-((4-(5,6-dichloropyrimidin-4-yl)piperazin-1-yl)methyl)-1-oxoisoindolin-2-yl)dihydropyrimidine-2,4(1H,3H)-dione]", "values": [{"measurement": "IKZF1 substrate protein remaining %", "setting": "IKZF1", "result": "B (80%< substrate protein remaining % ≤100%)"}, {"measurement": "GSPT1 substrate protein remaining %", "setting": "GSPT1", "result": "A (0% ≤ substrate protein remaining % ≤80%)"}, {"measurement": "CK1α substrate protein remaining %", "setting": "CK1α", "result": "B (80%< substrate protein remaining % ≤100%)"}, {"measurement": "IKZF3 substrate protein remaining %", "setting": "IKZF3", "result": "B (80%< substrate protein remaining % ≤100%)"}, {"measurement": "IKZF2 substrate protein remaining %", "setting": "IKZF2", "result": "B (80%< substrate protein remaining % ≤100%)"}, {"measurement": "WEE1 substrate protein remaining %", "setting": "WEE1", "result": "A (0% ≤ substrate protein remaining % ≤80%)"}]}
{"smiles": "O=C1CCN(N2Cc3cc(CN4CCN(c5cnnc(Cl)c5Cl)CC4)ccc3C2=O)C(=O)N1", "note": "[GT-07029, 1-(5-((4-(5,6-dichloropyridazin-4-yl)piperazin-1-yl)methyl)-1-oxoisoindolin-2-yl)dihydropyrimidine-2,4(1H,3H)-dione]", "values": [{"measurement": "IKZF1 substrate protein remaining %", "setting": "IKZF1", "result": "B (80%< substrate protein remaining % ≤100%)"}, {"measurement": "GSPT1 substrate protein remaining %", "setting": "GSPT1", "result": "A (0% ≤ substrate protein remaining % ≤80%)"}, {"measurement": "CK1α substrate protein remaining %", "setting": "CK1α", "result": "B (80%< substrate protein remaining % ≤100%)"}, {"measurement": "IKZF3 substrate protein remaining %", "setting": "IKZF3", "result": "B (80%< substrate protein remaining % ≤100%)"}, {"measurement": "IKZF2 substrate protein remaining %", "setting": "IKZF2", "result": "A (0% ≤ substrate protein remaining % ≤80%)"}, {"measurement": "WEE1 substrate protein remaining %", "setting": "WEE1", "result": "A (0% ≤ substrate protein remaining % ≤80%)"}]}
